These compounds were tested against human recombinant H-PGDS (Homo sapiens, UniProt O60760) (assay: Fluorescence intensity h-PGDS TBA enzyme assay (PGH2 depletion, MDA/TBA fluorescence)). Conditions: 1:175,000 human recombinant H-PGDS, 42 second reaction, 3-fold serial dilutions, highest concentration typically 1 μM.
Assay type: biochemical
Protocol: Fluoresecence Intensity h-PGDSTBA Enzyme Assay
Prostaglandin D Synthase (PGDS) converts the substrate prostaglandin H2 (PGH2) to prostaglandin D2. The depletion of PGH2 was measured via an Fe(II) reduction of the remaining PGH2 to malondialdehyde (MDA) and 12-HHT. The enzyme assay is based on the quantitative formation of a fluorescent complex from the non-fluorescent compounds MDA and 2-thiobarbituric acid (TBA), substantially as described in U.S. patent application publication US-2004/152148 by Lombardt.
The enzyme assay (31 μls) contained 100 mM Tris base pH 8.0, 100 μM MgCl2, 0.1 mg/ml IgG Rabbit serum, 5.0 μM PGH2 (Cayman; ethanol solution, #17020), 2.5 mM L-Glutathione (Sigma; reduced form. #G4251), 1:175,000 human recombinant H-PGDS (from 1 mg/ml), 0.5% DMSO and inhibitor (varying concentration). Three μls of diluted inhibitor (dissolved in DMSO) was plated into a 384-well assay plate followed by a 25 μl addition of an enzyme solution containing h-PGDS, Tris, MgCl2, IgG and L-Glutathione. After preincubation of inhibitor and enzyme solution for 10 minutes at room temperature, the reaction was initiated with a 3 μl addition of substrate solution in 10 mM HCl. The reaction was terminated after 42 second by the addition (3 μl) of stop buffer containing FeCl2 and citric acid. After addition of 45.5 μls of TBA plates were heated for one hour in a 70° C. oven. Plates were cooled at room temperature overnight and read on a plate reader the next day with excitation @ 530 nm and emission @ 565 nm.
IC50' s of inhibitors were calculated with a 4-parameter fit using 11 inhibitor concentrations in duplicate with 3-fold serial dilutions. Controls on each plate included no inhibitor (zero % effect) and an inhibitor 10-fold in excess of its' IC50 (100% effect). The highest inhibitor concentration tested was typically 1 μM.

Sequence of human recombinant H-PGDS (O60760 whole entry): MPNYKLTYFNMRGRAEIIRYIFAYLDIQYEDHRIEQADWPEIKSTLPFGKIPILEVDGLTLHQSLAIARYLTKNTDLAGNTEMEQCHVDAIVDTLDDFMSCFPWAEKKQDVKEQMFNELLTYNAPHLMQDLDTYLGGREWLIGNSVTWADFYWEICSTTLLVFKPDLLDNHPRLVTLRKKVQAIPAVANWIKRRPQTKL

Row | Compound | IC50 [nM]
1 | COC(=O)C1(NC(=O)c2ccc(-c3cccc(OC)c3)nc2)CC1 [Example 4, Methyl 1-({[6-(3-methoxyphenyl)pyridin-3-yl]carbonyl}amino)cyclopropanecarboxylate] | ≥ 1000
2 | COC(=O)C1(NC(=O)c2ccc(-c3ccc(F)cc3)nc2)CC1 [Example 5] | ≥ 1000
3 | O=C(NC1CCCC1)c1ccc(-c2cccc(F)c2)nc1 [Example 9, N-Cyclopentyl-6-(3-fluorophenyl)nicotinamide] | 7.11
4 | COC[C@H]1CCC[C@H]1NC(=O)c1ccc(-c2cccc(F)c2)nc1 [Example 10] | 94.3
5 | O=C(NC1CCCCC1O)c1ccc(-c2cccc(F)c2)nc1 (stereo not shown) [Example 17, 6-(3-Fluorophenyl)-N-(2-hydroxycyclohexyl)nicotinamide] | 2.87
6 | O=C(NC1CCCCC1)c1ccc(-c2cccc(F)c2)nc1 [Example 18, N-Cyclohexyl-6-(3-fluorophenyl)nicotinamide] | 7.72
7 | Cc1cccc(-c2ccc(C(=O)NC3CCCCC3)cn2)c1 [Example 19, N-Cyclohexyl-6-(3-methylphenyl)nicotinamide] | 10.2
8 | COc1cccc(-c2ccc(C(=O)NC3CCCCC3)cn2)c1 [Example 20, N-Cyclohexyl-6-(3-methoxyphenyl)nicotinamide] | 105
9 | O=C(NC1CCCCC1)c1ccc(-c2ccccc2)nc1 [Example 21, N-Cyclohexyl-6-phenylnicotinamide] | 1.66
10 | O=C(NC1CCCCC1)c1ccc(-c2ccc(F)cc2)nc1 [Example 22, N-Cyclohexyl-6-(4-fluorophenyl)nicotinamide] | 40.8
11 | O=C(N[C@@H]1CCCC[C@@H]1CO)c1ccc(-c2cccc(F)c2)nc1 [Example 24] | 20.1
12 | O=C(N[C@H]1CCCC[C@@H]1O)c1ccc(-c2cccc(F)c2)nc1 [Example 25] | 22.3
13 | CC(C)(O)C1CCC(NC(=O)c2ccc(-c3cccc(F)c3)nc2)CC1 (stereo not shown) [Example 48, 6-(3-Fluorophenyl)-N-[4-(1-hydroxy-1-methylethyl)cyclohexyl]nicotinamide] | 0.614
14 | O=C(N[C@H]1CC[C@H](O)CC1)c1ccc(-c2cccc(F)c2)nc1 [Example 104, 6-(3-Fluorophenyl)-N-(trans-4-hydroxycyclohexyl)nicotinamide] | 2.29
15 | O=C(N[C@H]1CC[C@H](CO)CC1)c1cnc(-c2cccc(F)c2)c(Cl)c1 [Example 114, 5-Chloro-6-(3-fluorophenyl)-N-[trans-4-(hydroxymethyl)cyclohexyl]nicotinamide] | 4.41
16 | O=C(NC1CCC(F)(F)CC1)c1ccc(-c2cccc(F)c2)nc1 [Example 119, N-(4,4-Difluorocyclohexyl)-6-(3-fluorophenyl)nicotinamide] | 1.28
17 | O=C(NC1CCCc2ccccc21)c1ccc(-c2ccccc2)nc1 (stereo not shown) [Example 120, 6-Phenyl-N-(1,2,3,4-tetrahydronaphthalen-1-yl)nicotinamide] | 1.77
18 | COc1cccc(-c2ccc(C(=O)NC3CCCc4ccccc43)cn2)c1 (stereo not shown) [Example 121, 6-(3-Methoxyphenyl)-N-(1,2,3,4-tetrahydronaphthalen-1-yl)nicotinamide] | 88
19 | O=C(NC1CCCc2ccccc21)c1ccc(-c2cccc(F)c2)nc1 (stereo not shown) [Example 122, 6-(3-Fluorophenyl)-N-(1,2,3,4-tetrahydronaphthalen-1-yl)nicotinamide] | 4.16
20 | O=C(NC1CCCc2ccccc21)c1ccc(-c2ccc(F)cc2)nc1 (stereo not shown) [Example 123, 6-(4-Fluorophenyl)-N-(1,2,3,4-tetrahydronaphthalen-1-yl)nicotinamide] | 30
21 | O=C(NC1CCCc2ccccc21)c1ccc(-c2cc(F)cc(F)c2)nc1 (stereo not shown) [Example 124, 6-(3,5-Difluorophenyl)-N-(1,2,3,4-tetrahydronaphthalen-1-yl)nicotinamide] | 22.7
22 | O=C(NC12CC(C1)C2)c1ccc(-c2cccc(F)c2)nc1 [Example 125, N-Bicyclo[1.1.1]pent-1-yl-6-(3-fluorophenyl)nicotinamide] | 6.66
23 | CC(C)n1ncc2c1CCCC2NC(=O)c1ccc(-c2cccc(F)c2)nc1 (stereo not shown) [Example 129, 6-(3-Fluorophenyl)-N-(1-isopropyl-4,5,6,7-tetrahydro-1H-indazol-4-yl)nicotinamide] | 194

The remaining lines, values ahead:

Row | IC50 [nM] | Compound
24 | 21.1 | CN(C)CCCNC(=O)[C@H]1CC[C@H](NC(=O)c2ccc(-c3cccc(F)c3)nc2)CC1 [Example 113A, N-(trans-4-{[3-(dimethylamino)propyl]carbamoyl}cyclohexyl)-6-(3-fluorophenyl)nicotinamide]
25 | 7 | O=C(N[C@H]1CC[C@H](C(=O)N[C@@H]2CCNC2=O)CC1)c1ccc(-c2cccc(F)c2)nc1 [Example 113B, 6-(3-fluorophenyl)-N-(trans-4-{[(3R)-2-oxopyrrolidin-3-yl]carbamoyl}cyclohexyl)nicotinamide]
26 | 7.4 | O=C(N[C@H]1CC[C@H](C(=O)N[C@H]2CCNC2=O)CC1)c1ccc(-c2cccc(F)c2)nc1 [Example 113C, 6-(3-fluorophenyl)-N-(trans-4-{[(3S)-2-oxopyrrolidin-3-yl]carbamoyl}cyclohexyl)nicotinamide]
27 | 10.8 | N[C@H]1CCCC[C@H]1NC(=O)[C@H]1CC[C@H](NC(=O)c2ccc(-c3cccc(F)c3)nc2)CC1 [Example 113D, N-(trans-4-{[(1R,2S)-2-aminocyclohexyl]carbamoyl}cyclohexyl)-6-(3-fluorophenyl)nicotinamide]
28 | 8.8 | O=C(N[C@H]1CC[C@H](C(=O)N[C@@H]2CCOC2)CC1)c1ccc(-c2cccc(F)c2)nc1 [Example 113E, 6-(3-fluorophenyl)-N-{trans-4-[(3R)-tetrahydrofuran-3-ylcarbamoyl]cyclohexyl}nicotinamide]
29 | 4.5 | O=C(N[C@H]1CC[C@H](C(=O)NCCCO)CC1)c1ccc(-c2cccc(F)c2)nc1 [Example 113G, 6-(3-fluorophenyl)-N-{trans-4-[(3-hydroxypropyl)carbamoyl]cyclohexyl}nicotinamide]
30 | 46 | O=C(N[C@H]1CC[C@H](C(=O)NCCN2CCCCC2)CC1)c1ccc(-c2cccc(F)c2)nc1 [Example 113H, 6-(3-fluorophenyl)-N-{trans-4-[(2-piperidin-1-ylethyl)carbamoyl]cyclohexyl}nicotinamide]
31 | 10.5 | COCCNC(=O)[C@H]1CC[C@H](NC(=O)c2ccc(-c3cccc(F)c3)nc2)CC1 [Example 113I, 6-(3-fluorophenyl)-N-{trans-4-[(2-methoxyethyl)carbamoyl]cyclohexyl}nicotinamide]
32 | 6.6 | CC[C@@H](O)C(=O)N[C@H]1CC[C@H](NC(=O)c2ccc(-c3cccc(F)c3)nc2)CC1 [Example 113J, 6-(3-fluorophenyl)-N-(trans-4-{[(2R)-2-hydroxybutanoyl]amino}cyclohexyl)nicotinamide]
33 | 9.6 | CC(C)(N)C(=O)N[C@H]1CC[C@H](NC(=O)c2ccc(-c3cccc(F)c3)nc2)CC1 [Example 113K, 6-(3-fluorophenyl)-N-{trans-4-[(2-methylalanyl)amino]cyclohexyl}nicotinamide]
34 | 6.1 | CC[C@H](O)C(=O)N[C@H]1CC[C@H](NC(=O)c2ccc(-c3cccc(F)c3)nc2)CC1 [Example 113L, 6-(3-fluorophenyl)-N-(trans-4-{[(2S)-2-hydroxybutanoyl]amino}cyclohexyl)nicotinamide]
35 | 7.6 | Cc1ccnn1CC(=O)N[C@H]1CC[C@H](NC(=O)c2ccc(-c3cccc(F)c3)nc2)CC1 [Example 113M, 6-(3-fluorophenyl)-N-(trans-4-{[(5-methyl-1H-pyrazol-1-yl)acetyl]amino}cyclohexyl)nicotinamide]
36 | 11.5 | COCC(=O)N[C@H]1CC[C@H](NC(=O)c2ccc(-c3cccc(F)c3)nc2)CC1 [Example 113N, 6-(3-fluorophenyl)-N-{trans-4-[(methoxyacetyl)amino]cyclohexyl}nicotinamide]
37 | 7.3 | O=CN[C@H]1CC[C@H](NC(=O)c2ccc(-c3cccc(F)c3)nc2)CC1 [Example 113O, 6-(3-fluorophenyl)-N-(trans-4-formamidocyclohexyl)nicotinamide]
38 | 9.1 | CC(=O)NC(C)(C)[C@H]1CC[C@H](NC(=O)c2ccc(-c3cccc(F)c3)nc2)CC1 [Example 113P, N-[trans-4-(1-acetamido-1-methylethyl)cyclohexyl]-6-(3-fluorophenyl)nicotinamide]
39 | 9.7 | C[C@@H](N)C(=O)N[C@H]1CC[C@H](NC(=O)c2ccc(-c3cccc(F)c3)nc2)CC1 [Example 113Q, N-[trans-4-(D-alanylamino)cyclohexyl]-6-(3-fluorophenyl)nicotinamide]
40 | 13.8 | C[C@H](N)C(=O)N[C@H]1CC[C@H](NC(=O)c2ccc(-c3cccc(F)c3)nc2)CC1 [Example 113R, N-[trans-4-(L-alanylamino)cyclohexyl]-6-(3-fluorophenyl)nicotinamide]
